According to ChEMBL document CHEMBL3727348, “3-(aryl or heteroaryl) methyleneindolin-2-one derivatives as inhibitors of cancer stem cell pathway kinases for the treatment of cancer” (2014):

Assays:
FaDu [1] = assay: Cytotoxic activity against human FADU bulk cells incubated for 72 hrs by Cell-titer-Glo luminescence assay; format: functional, cell-based
A549 [2] = assay: Cytotoxic activity against human A549 bulk cells incubated for 72 hrs by Cell-titer-Glo luminescence assay; format: functional, cell-based; details: A549, 72 h
ACHN [3] = assay: Cytotoxic activity against human ACHN bulk cells incubated for 72 hrs by Cell-titer-Glo luminescence assay; format: functional, cell-based
A549 [4] = assay: Cytotoxic activity against human A549 cancer stem cells incubated for 72 hrs by Cell-titer-Glo luminescence assay; format: functional, cell-based; details: A549, 72 h
[5] = molecular target: T1, Ribosomal protein S6 kinase (Homo sapiens) (UniProt P51812+Q9UBS0+O75676+Q15349+O75582+P23443+Q9UK32+Q15418); assay: Inhibition of RPS6 kinase in human HeLa cells assessed as p-RPS6 Ser240/244 phosphorylation level at 5 uM incubated for 6 hrs by SDS-PAGE based chemiluminescence assay; format: cell-based; parameters: scale not given: the % may be the effect or the level left
FaDu [6] = assay: Cytotoxic activity against human FADU cancer stem cells incubated for 72 hrs by Cell-titer-Glo luminescence assay; format: functional, cell-based
[7] = molecular target: AMP-activated protein kinase, AMPK (Homo sapiens) (UniProt P54646+O43741+P54619+Q9UGJ0+Q9Y478+Q13131+Q9UGI9); assay: Inhibition of AMPK in human HeLa cells assessed as kinase phosphorylation level at 5 uM incubated for 6 hrs by SDS-PAGE based chemiluminescence assay; format: cell-based; parameters: scale not given: the % may be the effect or the level left
[8] = molecular target: T1, Ribosomal protein S6 kinase (Homo sapiens); assay: Inhibition of RPS6 kinase in human HeLa cells assessed as p-RPS6 Ser235/236 phosphorylation level at 5 uM incubated for 6 hrs by SDS-PAGE based chemiluminescence assay; format: cell-based; parameters: scale not given: the % may be the effect or the level left
ACHN [9] = assay: Cytotoxic activity against human ACHN cancer stem cells incubated for 72 hrs by Cell-titer-Glo luminescence assay; format: functional, cell-based

Compound	Activity [5]	Activity [7]	Activity [8]	IC50 (FaDu [1])	IC50 (A549 [2])	IC50 (ACHN [3])	IC50 (A549 [4])	IC50 (FaDu [6])	IC50 (ACHN [9])
CCN(CC)CCNC(=O)c1c(C)[nH]c(/C=C2\C(=O)Nc3c2cccc3-c2csc(-c3ccccc3)n2)c1C	32%	144%	2%	3750 nM	1960 nM	3200 nM	1570 nM	1260 nM	280 nM
CCN(CC)CCNC(=O)c1c(C)[nH]c(/C=C2\C(=O)Nc3ccc(-c4csc(-c5ccccc5)n4)nc32)c1C	42%	35%	5%	1370 nM	1740 nM	1370 nM	620 nM	110 nM	970 nM
CCN(CC)CCNC(=O)c1c(C)[nH]c(/C=C2\C(=O)Nc3ccc(-c4n[nH]c5ccccc45)cc32)c1C	26%	22%	4%	2850 nM	3020 nM	4310 nM	5650 nM	10200 nM	1310 nM
Cc1[nH]c(/C=C2\C(=O)Nc3c2cccc3-c2csc(-c3ccccc3)n2)c(C)c1C(=O)N1CCN(C)CC1	32%	122%	2%	5410 nM	5410 nM	15200 nM	4190 nM	2990 nM	500 nM
CCN(CC)CCNC(=O)c1c(C)[nH]c(/C=C2\C(=O)Nc3ccc(-c4ccc(-c5ccccc5)o4)cc32)c1C	64%	144%	19%	3090 nM	4300 nM	3660 nM	8250 nM	1410 nM	250 nM
CCN(CC)CCNC(=O)c1c(C)[nH]c(/C=C2\C(=O)Nc3ccc(-c4nc(-c5ccccc5)cs4)cc32)c1C	64%	12%	21%	1180 nM	4740 nM	1640 nM	4280 nM	270 nM	–
CCN(CC)CCNC(=O)c1c(C)[nH]c(/C=C2\C(=O)Nc3c2cccc3-c2cccnc2OC)c1C	54%	31%	48%	3810 nM	5320 nM	3640 nM	6870 nM	1920 nM	2710 nM
Cc1[nH]c(/C=C2\C(=O)Nc3ccc(-c4csc(-c5ccccc5)n4)nc32)c(C)c1C(=O)NCCN1CCCC1	51%	41%	13%	1730 nM	1430 nM	1520 nM	2470 nM	170 nM	400 nM
CCN(CC)CCNC(=O)c1c(C)[nH]c(/C=C2\C(=O)Nc3ccc(-c4ccc(-c5ccccc5)cn4)cc32)c1C	82%	118%	61%	2720 nM	2020 nM	5380 nM	3790 nM	4810 nM	650 nM
CCN(CC)CCNC(=O)c1c(C)[nH]c(/C=C2\C(=O)Nc3ccc(-c4csc(-c5ccc(O)cc5)n4)cc32)c1C	88%	47%	79%	700 nM	3060 nM	1380 nM	6990 nM	1850 nM	500 nM
CCN(CC)CCNC(=O)c1c(C)[nH]c(/C=C2\C(=O)Nc3c2cccc3-c2cncc(C)c2)c1C	59%	50%	47%	6230 nM	3360 nM	1680 nM	2230 nM	2200 nM	1970 nM
Cc1nc(-c2ccccc2)oc1-c1ccc2c(c1)NC(=O)/C2=C\c1[nH]c(C)c(C(=O)N2CCN(C)CC2)c1C	21%	103%	2%	–	–	–	–	1600 nM	500 nM
CCN(CC)CCNC(=O)c1c(C)[nH]c(/C=C2\C(=O)Nc3cc(-c4oc(-c5ccccc5)nc4C)ccc32)c1C	43%	151%	4%	3550 nM	7490 nM	2970 nM	–	8090 nM	1650 nM

Further lines, with some results ahead:

Activity [5]	Activity [7]	Activity [8]	Compound	IC50 (FaDu [1])	IC50 (A549 [2])	IC50 (ACHN [3])	IC50 (A549 [4])	IC50 (FaDu [6])	IC50 (ACHN [9])
73%	150%	33%	Cc1[nH]c(/C=C2\C(=O)Nc3cc(-c4csc(-c5ccccc5)n4)ccc32)c(C)c1C(=O)N1CCN(C)CC1	4740 nM	26300 nM	11600 nM	1220 nM	1030 nM	390 nM
75%	103%	74%	Cc1cncc(-c2cccc3c2NC(=O)/C3=C\c2[nH]c(C)cc2C)c1	26400 nM	21200 nM	16000 nM	32000 nM	–	32000 nM
76%	47%	76%	Cc1cc(C)c(/C=C2\C(=O)Nc3ccc(-c4csc(C5CCNCC5)n4)cc32)[nH]1	1620 nM	1290 nM	1560 nM	880 nM	430 nM	90 nM
34%	69%	6%	Cc1cc(C)c(/C=C2\C(=O)Nc3ccc(-c4csc(C5CCCNC5)n4)cc32)[nH]1 (configuration not stated)	1580 nM	1340 nM	1640 nM	1700 nM	480 nM	50 nM
47%	75%	50%	Cc1cc(C)c(/C=C2\C(=O)Nc3cccc(-c4ccncc4)c32)[nH]1	19600 nM	13100 nM	19800 nM	30300 nM	12200 nM	16200 nM
54%	96%	57%	COc1ncc(-c2cccc3c2NC(=O)/C3=C\c2[nH]c(C)cc2C)cn1	20800 nM	17700 nM	21900 nM	34700 nM	–	17500 nM
31%	8%	1%	CCN(CC)CCNC(=O)c1c(C)[nH]c(/C=C2\C(=O)Nc3ccc(-c4cccnc4)cc32)c1C	2820 nM	840 nM	1310 nM	3900 nM	4310 nM	1060 nM
24%	39%	1%	Cc1cc(C)c(/C=C2\C(=O)Nc3ccc(-c4ccc5cn[nH]c(=O)c5c4)cc32)[nH]1	2550 nM	1400 nM	1120 nM	3000 nM	2960 nM	260 nM
35%	27%	36%	Cc1cc(C)c(/C=C2\C(=O)Nc3cccc(-c4ccc5cc[nH]c5c4)c32)[nH]1	16400 nM	16600 nM	20400 nM	20200 nM	–	18900 nM
36%	105%	2%	Cc1[nH]c(/C=C2\C(=O)Nc3cccc(-c4ccc(-c5ccccc5)cc4)c32)c(C)c1C(=O)N1CCN(C)CC1	7560 nM	21500 nM	14900 nM	5760 nM	1210 nM	–
